Measured values reported in patent US20260007756A1, “COMPOUND AND USE THEREOF” (COHERENT BIOPHARMA (SUZHOU) LIMITED, priority 2022, published 2026).

What was measured:
[1] = tested on: human prostate cancer C4-2 cell subcutaneous xenograft tumor; assay: Pharmacodynamic assessment, C4-2 xenograft model; format: in vivo, NCG mouse; settings: 4 mg/kg i.v biw×3, day 23 after grouping
Text: Objective: Pre-clinical assessment of the efficacy of compounds for treating NCG mouse model with C4-2 cell subcutaneous xenograft tumor (overexpressing PSMA).
(§1) Procedures: C4-2 cells were subcutaneously grafted at the right back of the mice, and the mice were randomized when the mean tumor volume reached 100-150 mm^3. After the administration, the routine monitoring included the effect on tumor growth and the effect of treatment on the normal behavior of the animals, specifically the activity, food and water intake, weight gain or loss, the eyes, the hair, and other abnormal conditions. Clinical symptoms observed during the study were recorded in the raw data. After the administration was started, the body weight and tumor size of the mice were measured periodically. The tumor volume was calculated using the following formula: V=1/2×(a×b^2), where a and b denote the long diameter and short diameter of the tumor, respectively.

[2] = tested on: HT-29 cell subcutaneous xenograft tumor; assay: Pharmacodynamic assessment, HT-29 xenograft model; format: in vivo, BALB/c nude mouse
Text: Objective: Pre-clinical assessment of the efficacy of CR202 series of compounds for treating BALB/c nude mouse model with HT-29 cell subcutaneous xenograft tumor.
as §1, with “HT-29” for “C4-2”

[3] = 2 mg/kg i.v BIW×3, day 25 after grouping
[4] = 4 mg/kg i.v BIW×3, day 25 after grouping

Structure (SMILES): CC[C@@H]1C(=O)N(C)c2cnc(Nc3ccc(-c4cn([C@H]5CC[C@@H](NCCOCCC#Cc6cccc7c6CN(C6CCC(=O)NC6=O)C7=O)CC5)nn4)cc3OC)nc2N1C1CCCC1 (stereo partly drawn) [CR20274]
- Mean tumor volume [1]: 2198.07 mm^3
- TGI [1]: −25.70%
- Mean tumor volume [2, 3]: 1575.84 mm^3
- TGI [2, 3]: 24.23%
- Mean tumor volume [2, 4]: 1316.64 mm^3
- TGI [2, 4]: 36.69%
